Measured values taken from US11267965B2, “Polymeric materials for biomedical applications” (Aleo BME, Inc., priority 2015, dated 2022).

Assays:
Schwann cells [1] = assay: Quantification of global DNA methylation; type: cell-based; conditions: second day of culture
PC-12 cells = assay: PC12 cell neurite outgrowth assay; type: cell-based, rat
PC12 cells = assay: Quantification of global DNA methylation; type: cell-based, rat; conditions: second day of culture
Schwann cells [2] = assay: Schwann cell migration, microchannel-based migration assay (live cell imaging); conditions: left reservoir 4 mg/L folate, right reservoir 50 mg/L folate; channel width 200 μm
Schwann cells [3] = assay: Schwann cell migration, transwell model; type: cell-based; conditions: 4 hr migration, compared to 4, 100 and 200 mg/L folate
[4] = test system: MAP-2 protein expression in PC12 cells; assay: Western blot analysis of microtubule-associated protein-2 (MAP-2) in PC12 cells; type: cell-based, rat; conditions: 14 days

**Q.** Which “folate concentration with highest global DNA methylation” value (Schwann cells [1]) does the source give for `Nc1nc2ncc(CNc3ccc(C(=O)N[C@@H](CCC(=O)O)C(=O)O)cc3)nc2c(=O)[nH]1` [folic acid] here?
**A.** 50 mg/L

**Q.** And the “neurite outgrowth (average neurite length)” value (PC-12 cells; 50-100 mg/L folate with 50 ng/mL NGF, day 7, control medium 1.3 mg/L folate <100 μm)?
**A.** > 150 μm

**Q.** And the “folic acid concentration with highest neurite outgrowth” value (PC-12 cells; day 3 of culture, neural differentiation medium with 5 ng/ml neural growth factor)?
**A.** 50 mg/L

**Q.** What about the “PC-12 neurite outgrowth rate” value (PC-12 cells; folic acid supplemented medium) of the same molecule?
**A.** promote PC-12 neurite outgrowth rate in a dose-dependent manner

**Q.** And the “optimal folic acid supplement concentration for promoting PC-12 differentiation and neurite outgrowth” value (PC-12 cells; within the concentrations investigated)?
**A.** 50 to 100 mg/L

**Q.** And the “folate concentration with highest global DNA methylation” value (PC12 cells)?
**A.** 50 mg/L

**Q.** What about the “Schwann cell migration direction in microchannels” value (Schwann cells [2]) of the same molecule?
**A.** migration of Schwann cell from low folate medium to high folate medium

**Q.** And the “folate concentration of medium toward which the highest number of Schwann cells migrated” value (Schwann cells [3])?
**A.** 50 mg/L

**Q.** What about the “MAP-2 protein expression relative to control medium (1.3 mg/L folate)” value ([4]; 50 mg/L folate, in the presence of NGF (50 ng/mL)) of the same molecule?
**A.** 2.56 folds

**Q.** What about the “MAP-2 protein expression relative to control sample (1.3 mg/L folate)” value ([4]; 50 and 100 mg/L folate, in the absence of NGF) of the same molecule?
**A.** 2.22-2.30 folds
